# Test results from US20240417410A1, “TRICYCLIC COMPOUNDS FOR THE TREATMENT OF CANCER” (Hoffmann-La Roche Inc., priority 2023, published 2024).
# Read-outs that look alike come from different tables or passages of the source.
# Assays:
# Assay in all cases: Cell proliferation, CTG 3D, 7 d
# Type in all cases: cell-based
# NCI-H1355 = settings: Homo sapiens
# Summary of the method: (§1)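 Spheroids formed overnight in ultra-low-attachment plates are exposed for 7 days to a 9-dose, 3-fold compound series (0.2% DMSO). IC50 values derive from CTG 3D luminescence fits; for incomplete curves, values below the lowest or above the highest tested concentration are reported, or bottom fixed at 0%.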
# NCI-H2291 = settings: Homo sapiens
# Summary of the method: as §1
# LS513 = settings: Homo sapiens, LS-513; LS513, KRAS (G12D)
# Summary of the method: as §1
# SNU-668 = settings: Homo sapiens, SNU668
# Summary of the method: as §1
# HepG2 = settings: Homo sapiens
# Summary of the method: as §1
# PA-1 = settings: Homo sapiens; PA-1, NRAS (p.G12D)
# Summary of the method: as §1
# HCC-15 = settings: Homo sapiens, HCC15
# Summary of the method: as §1
# HS 578T = settings: Homo sapiens, HRAS (p.G12D)
# Summary of the method: as §1
# MOLT-4 = settings: Homo sapiens; MOLT-4, NRAS (p.G12C)
# Summary of the method: as §1
# KP-2 = settings: Homo sapiens
# Summary of the method: as §1
# THP-1 = settings: Homo sapiens; THP-1, NRAS (p.G12D)
# Summary of the method: as §1
# BEN = settings: Homo sapiens, KRAS (WT ampl)
# Summary of the method: as §1
# COR-L23 = settings: Homo sapiens; COR-L23, KRAS (G12V)
# Summary of the method: as §1
# NCI-H358 = settings: Homo sapiens; NCI-H358, KRAS (G12C)
# Summary of the method: as §1
# GA-10 = settings: Homo sapiens; GA-10, NRAS (p.G12V)
# Summary of the method: as §1
# NCI-H1299 = settings: Homo sapiens
# Summary of the method: as §1
# OCI-Ly19 = settings: Homo sapiens
# Summary of the method: as §1
# SW620 = settings: Homo sapiens, SW-620; SW620, KRAS (G12V)
# Summary of the method: as §1
# CAL-62 = settings: Homo sapiens
# Summary of the method: as §1
# KYSE-30 = settings: Homo sapiens
# Summary of the method: as §1
# NCI-H1915 = settings: Homo sapiens
# Summary of the method: as §1
# PSN-1 = settings: Homo sapiens, PSN1
# Summary of the method: as §1
# NCI-H2087 = settings: Homo sapiens
# Summary of the method: as §1
# NCI-H2444 = settings: Homo sapiens; NCI-H2444, KRAS (G12V)
# Summary of the method: as §1
# LU99 = settings: Homo sapiens, Lu-99; LU99, KRAS (G12C)
# Summary of the method: as §1
# HEC-1-A = settings: Homo sapiens, KRAS (G12D)
# Summary of the method: as §1
# Calu-6 = settings: Homo sapiens
# Summary of the method: as §1
smiles,measurement,setting,value
"CO[C@@H](C)c1ncc(N2CCN(C)CC2)cc1-c1c2c3cc(cc4c3n1CCC4)-c1csc(n1)C[C@H](NC(=O)[C@H]1[C@H](C)[C@@H]1C)C(=O)N1CCC[C@H](N1)C(=O)OCC(C)(C)C2 (atropisomer, axis not shown; (M)) [Example 24, (1r,2R,3S)-N-[(7S,13S)-(20M)-20-[2-[(1S)-1-methoxyethyl]-5-(4-methylpiperazin-1-yl)-3-pyridyl]-17,17-dimethyl-8,14-dioxo-15-oxa-4-thia-9,21,30,31-tetrazahexacyclo[23.3.1.1^2,5.1^9,13.0^19,27.0^21,26]hentriaconta-1 (28),2,5 (31), 19,25 (29),26-hexaen-7-yl]-2,3-dimethyl-cyclopropanecarboxamide]",IC50,"NCI-H1355; NCI-H1355, KRAS (G13C), read-out: IC50",22 nM
same,IC50,"NCI-H2291; NCI-H2291, KRAS (G12F), read-out: IC50",0.55 nM
same,IC50,LS513,0.68 nM
same,IC50,"SNU-668; SNU-668, KRAS (Q61K), read-out: IC50",2 nM
same,IC50,"HepG2; HepG2, NRAS (p.Q61L), read-out: IC50",2.1 nM
same,IC50,PA-1,0.46 nM
same,IC50,"HCC-15; HCC-15, NRAS (p.Q61K), read-out: IC50",0.68 nM
same,IC50,HS 578T,1.7 nM
same,IC50,MOLT-4,1000 nM
same,IC50,"KP-2; KP-2, KRAS (G12R), read-out: IC50",0.35 nM
same,IC50,THP-1,0.26 nM
same,IC50,BEN,40 nM
same,IC50,COR-L23,0.53 nM
same,IC50,NCI-H358,0.12 nM
same,IC50,GA-10,1000 nM
same,IC50,"NCI-H1299; NCI-H1299, NRAS (p.Q61K), read-out: IC50",0.93 nM
same,IC50,"OCI-Ly19; OCI-Ly19, NRAS (p.Q61K), read-out: IC50",1.9 nM
same,IC50,SW620,0.1 nM
same,IC50,"CAL-62; CAL-62, KRAS (G12R), read-out: IC50",1.1 nM
same,IC50,"KYSE-30; KYSE-30, HRAS (p.Q61L), read-out: IC50",0.46 nM
same,IC50,"NCI-H1915; NCI-H1915, HRAS (p.Q61L), read-out: IC50",3.6 nM
same,IC50,"PSN-1; PSN-1, KRAS (G12R), read-out: IC50",0.85 nM
same,IC50,"NCI-H2087; NCI-H2087, NRAS (p.Q61K), read-out: IC50",0.21 nM
same,IC50,NCI-H2444,0.17 nM
same,IC50,LU99,0.59 nM
same,IC50,HEC-1-A,1.6 nM
same,IC50,"Calu-6; Calu-6, KRAS (Q61K), read-out: IC50",0.65 nM
"CCn1c(-c2cc(N3CCN(C)CC3)cnc2[C@H](C)OC)c2c3cc(ccc31)-c1csc(n1)C[C@H](NC(=O)[C@H]1C[C@@H]1C)C(=O)N1CCC[C@H](N1)C(=O)OCC(C)(C)O2 [Example A122, reference compound]",IC50,NCI-H1355; NCI-H1355,33 nM
same,IC50,NCI-H2291; NCI-H2291,1 nM
same,IC50,LS513,0.47 nM
same,IC50,SNU-668,4.3 nM
same,IC50,HepG2; HepG2,5.5 nM
same,IC50,PA-1,0.42 nM
same,IC50,HCC-15,1.7 nM
same,IC50,HS 578T,3.1 nM
same,IC50,MOLT-4,1000 nM
same,IC50,KP-2,0.43 nM
same,IC50,THP-1,0.18 nM
same,IC50,BEN,43 nM
same,IC50,COR-L23,0.78 nM
same,IC50,NCI-H358,0.27 nM
same,IC50,GA-10,1000 nM
same,IC50,NCI-H1299; NCI-H1299,1.5 nM
same,IC50,OCI-Ly19; OCI-LY19,2.4 nM
same,IC50,SW620,0.23 nM
same,IC50,CAL-62; CAL-62,8.8 nM
same,IC50,KYSE-30; KYSE-30,1 nM
same,IC50,NCI-H1915; NCI-H1915,10 nM
same,IC50,PSN-1,1.2 nM
same,IC50,NCI-H2087; NCI-H2087,0.44 nM
same,IC50,NCI-H2444,0.29 nM
same,IC50,LU99,0.91 nM
same,IC50,HEC-1-A,1.9 nM
same,IC50,Calu-6; Calu-6,1.3 nM
